Measured values reported in ChEMBL document CHEMBL3885861, “Open TG-GATES”.

Species: Rattus norvegicus
Test: Open TG-GATES - Regimen: Daily Repeat
Type: toxicity, organism-based, Sprague-Dawley
Parameters: regimen Daily Repeat, gender Male, age 6 weeks
Conditions: in vivo, po, 1000 mg/kg, route gavage, dose level High; for APTT / Bas / Eos / Fbg / Hb / Ht / Lym / MCH / MCHC / MCV / Mono / Neu / PT / Plat / RBC / Ret / WBC: tissue Blood; for KIDNEY_L / KIDNEY_R / KIDNEY_TOTAL: tissue Kidney; for LIVER: tissue Liver; for A/G / ALP / ALT / AST / BUN / CRE / Ca / Cl / DBIL / GLC / IP / K / LDH / Na / PL / RALB / TBIL / TC / TG / TP / gamma-GTP: tissue Plasma

Compound: CCCCNC(=O)NS(=O)(=O)c1ccc(C)cc1 [TOLBUTAMIDE]
- TERMINAL_BW (72 h, time 3 day): 225.8 g
- APTT (72 h, time 3 day): 17.7 s
- Bas (72 h, time 3 day): 0%
- Eos (72 h, time 3 day): 1%
- Fbg (72 h, time 3 day): 301.6 mg/dL
- Hb (72 h, time 3 day): 13.7 g/dL
- Ht (72 h, time 3 day): 41.6%
- Lym (72 h, time 3 day): 81%
- MCH (72 h, time 3 day): 21.2 pg
- MCHC (72 h, time 3 day): 33%
- MCV (72 h, time 3 day): 64.2 fL
- Mono (72 h, time 3 day): 2.2%
- Neu (72 h, time 3 day): 15.2%
- PT (72 h, time 3 day): 12.8 s
- Plat (72 h, time 3 day): 129.6 x10_4/uL
- RBC (72 h, time 3 day): 647.4 x10_4/ul
- Ret (72 h, time 3 day): 4.2%
- WBC (72 h, time 3 day): 89.2 x10_2/uL
- KIDNEY_L (72 h, time 3 day): 1 g
- KIDNEY_R (72 h, time 3 day): 1 g
- KIDNEY_TOTAL (72 h, time 3 day): 2.1 g
- LIVER (72 h, time 3 day): 11.5 g
- A/G (72 h, time 3 day): 0.9
- ALP (72 h, time 3 day): 1487 IU/L
- ALT (72 h, time 3 day): 40.8 IU/L
- AST (72 h, time 3 day): 69.6 IU/L
- BUN (72 h, time 3 day): 12.8 mg/dL
- CRE (72 h, time 3 day): 0.2 mg/dL
- Ca (72 h, time 3 day): 11 mg/dL
- Cl (72 h, time 3 day): 105.2 meq/L
- DBIL (72 h, time 3 day): 0.004 mg/dL
- GLC (72 h, time 3 day): 172 mg/dL
- IP (72 h, time 3 day): 7.9 mg/dL
- K (72 h, time 3 day): 3.9 meq/L
- LDH (72 h, time 3 day): 75.6 IU/L
- Na (72 h, time 3 day): 142.4 meq/L
- PL (72 h, time 3 day): 144 mg/dL
- RALB (72 h, time 3 day): 2.6 g/dL
- TBIL (72 h, time 3 day): 0.06 mg/dL
- TC (72 h, time 3 day): 76.8 mg/dL
- TG (72 h, time 3 day): 68 mg/dL
- TP (72 h, time 3 day): 5.5 g/dL
- gamma-GTP (72 h, time 3 day): 1 IU/L
- TERMINAL_BW ([…], time 7 day): 255.2 g
- TERMINAL_BW ([…], time 14 day): 306.7 g
- TERMINAL_BW ([…], time 28 day): 411.9 g
- APTT ([…], time 7 day): 18.1 s
- Bas ([…], time 7 day): 0.4%
- Eos ([…], time 7 day): 0.6%
- Fbg ([…], time 7 day): 267.4 mg/dL
- Hb ([…], time 7 day): 13.7 g/dL
- Ht ([…], time 7 day): 41.4%
- Lym ([…], time 7 day): 80%
- MCH ([…], time 7 day): 20.5 pg
- MCHC ([…], time 7 day): 33.1%
- MCV ([…], time 7 day): 61.9 fL
- Mono ([…], time 7 day): 2.4%
- Neu ([…], time 7 day): 16.2%
- PT ([…], time 7 day): 12.9 s
- Plat ([…], time 7 day): 112 x10_4/uL
- RBC ([…], time 7 day): 669.6 x10_4/ul
- Ret ([…], time 7 day): 5.3%
- WBC ([…], time 7 day): 138.8 x10_2/uL
- APTT ([…], time 14 day): 19.2 s
- Bas ([…], time 14 day): 0.4%
- Eos ([…], time 14 day): 0.8%
- Fbg ([…], time 14 day): 320 mg/dL
- Hb ([…], time 14 day): 14.3 g/dL
- Ht ([…], time 14 day): 43.7%
- Lym ([…], time 14 day): 82.8%
- MCH ([…], time 14 day): 19.3 pg
- MCHC ([…], time 14 day): 32.7%
- MCV ([…], time 14 day): 59.1 fL
- Mono ([…], time 14 day): 1.8%
- Neu ([…], time 14 day): 13.8%
- PT ([…], time 14 day): 12.5 s
- Plat ([…], time 14 day): 127.9 x10_4/uL
- RBC ([…], time 14 day): 740 x10_4/ul
- Ret ([…], time 14 day): 4.3%
- WBC ([…], time 14 day): 116.4 x10_2/uL
- APTT ([…], time 28 day): 25 s
- Bas ([…], time 28 day): 0.2%
- Eos ([…], time 28 day): 1%
- Fbg ([…], time 28 day): 269.5 mg/dL
- Hb ([…], time 28 day): 15 g/dL
- Ht ([…], time 28 day): 45%
- Lym ([…], time 28 day): 84.5%
- MCH ([…], time 28 day): 18.6 pg
- MCHC ([…], time 28 day): 33.5%
- MCV ([…], time 28 day): 55.6 fL
- Mono ([…], time 28 day): 2%
- Neu ([…], time 28 day): 11.2%
- PT ([…], time 28 day): 13.5 s
- Plat ([…], time 28 day): 102.5 x10_4/uL
- RBC ([…], time 28 day): 808.8 x10_4/ul
- Ret ([…], time 28 day): 2.1%
- WBC ([…], time 28 day): 118.3 x10_2/uL
- KIDNEY_L ([…], time 7 day): 1.1 g
- KIDNEY_R ([…], time 7 day): 1.1 g
- KIDNEY_TOTAL ([…], time 7 day): 2.2 g
- KIDNEY_L ([…], time 14 day): 1.2 g
- KIDNEY_R ([…], time 14 day): 1.2 g
- KIDNEY_TOTAL ([…], time 14 day): 2.4 g
- KIDNEY_L ([…], time 28 day): 1.4 g
- KIDNEY_R ([…], time 28 day): 1.3 g
- KIDNEY_TOTAL ([…], time 28 day): 2.7 g
- LIVER ([…], time 7 day): 12.3 g
- LIVER ([…], time 14 day): 15 g
- LIVER ([…], time 28 day): 18.7 g
- A/G ([…], time 7 day): 0.9
- ALP ([…], time 7 day): 1609.6 IU/L
- ALT ([…], time 7 day): 48.6 IU/L
- AST ([…], time 7 day): 71.4 IU/L
- BUN ([…], time 7 day): 14.8 mg/dL
- CRE ([…], time 7 day): 0.2 mg/dL
- Ca ([…], time 7 day): 10.7 mg/dL
- Cl ([…], time 7 day): 104 meq/L
- DBIL ([…], time 7 day): 0.008 mg/dL
- GLC ([…], time 7 day): 189.6 mg/dL
- IP ([…], time 7 day): 7.7 mg/dL
- K ([…], time 7 day): 4 meq/L
- LDH ([…], time 7 day): 55.8 IU/L
- Na ([…], time 7 day): 141.8 meq/L
- PL ([…], time 7 day): 151.8 mg/dL
- RALB ([…], time 7 day): 2.5 g/dL
- TBIL ([…], time 7 day): 0.052 mg/dL
- TC ([…], time 7 day): 74.2 mg/dL
- TG ([…], time 7 day): 94.2 mg/dL
- TP ([…], time 7 day): 5.4 g/dL
- gamma-GTP ([…], time 7 day): 0.8 IU/L
- A/G ([…], time 14 day): 0.9
- ALP ([…], time 14 day): 1494.8 IU/L
- ALT ([…], time 14 day): 42.4 IU/L
- AST ([…], time 14 day): 63.4 IU/L
- BUN ([…], time 14 day): 15 mg/dL
- CRE ([…], time 14 day): 0.2 mg/dL
- Ca ([…], time 14 day): 10.9 mg/dL
- Cl ([…], time 14 day): 104.6 meq/L
- DBIL ([…], time 14 day): 0.01 mg/dL
- GLC ([…], time 14 day): 192.6 mg/dL
- IP ([…], time 14 day): 6.8 mg/dL
- K ([…], time 14 day): 3.8 meq/L
- LDH ([…], time 14 day): 49.4 IU/L
- Na ([…], time 14 day): 142.4 meq/L
- PL ([…], time 14 day): 157.2 mg/dL
- RALB ([…], time 14 day): 2.7 g/dL
- TBIL ([…], time 14 day): 0.056 mg/dL
- TC ([…], time 14 day): 72 mg/dL
- TG ([…], time 14 day): 136.8 mg/dL
- TP ([…], time 14 day): 5.9 g/dL
- gamma-GTP ([…], time 14 day): 1 IU/L
- A/G ([…], time 28 day): 0.8
- ALP ([…], time 28 day): 1194 IU/L
- ALT ([…], time 28 day): 36.5 IU/L
- AST ([…], time 28 day): 59 IU/L
- BUN ([…], time 28 day): 17.2 mg/dL
- CRE ([…], time 28 day): 0.3 mg/dL
- Ca ([…], time 28 day): 10.8 mg/dL
- Cl ([…], time 28 day): 105.2 meq/L
- DBIL ([…], time 28 day): 0.01 mg/dL
- GLC ([…], time 28 day): 203.2 mg/dL
- IP ([…], time 28 day): 6.5 mg/dL
- K ([…], time 28 day): 3.7 meq/L
- LDH ([…], time 28 day): 53.5 IU/L
- Na ([…], time 28 day): 143.2 meq/L
- PL ([…], time 28 day): 132 mg/dL
- RALB ([…], time 28 day): 2.7 g/dL
- TBIL ([…], time 28 day): 0.05 mg/dL
- TC ([…], time 28 day): 58.2 mg/dL
- TG ([…], time 28 day): 111.5 mg/dL
- TP ([…], time 28 day): 6 g/dL
- gamma-GTP ([…], time 28 day): 1 IU/L
